Where “and” joins values, the source holds several entries; their conditions need not be identical. Equal entries are not always repeated.
What was measured:
[1] = system: collagen-induced arthritis rats; details: reported in Patent Document 3 and Non-Patent Documents 3 to 5; cited from earlier work
[2] = system: adjuvant-induced arthritis rats; assay: Combination effect on adjuvant-induced arthritis, joint destruction score by soft X-ray (Example 20); assay type: in vivo, rat
Procedure: Combination effect for adjuvant-induced arthritic rats was examined in the same manner as in Example 17.
Euthanasia was carried out for all the rats by aspiration of high concentration carbon dioxide after the last administration. Both the hind paws were cut off at the middle point of […]. Both the hind paws were fixed with 10% neutral buffered formalin liquid. […] The degree of joint destruction was recorded with a score. Observed sites were three points of the tibia, calcaneum and tarsal bone, and the possible maximum score was 12.
1: Minimum destruction of joints and bones and new formation of cartilages
2: Mild destruction of joints and bones and new formation and light ossification of cartilages
3: Moderate destruction of joints and bones and ossification
4: Severe destruction and deformation of joints and bones and intense ossification

[3] = system: experimental allergic encephalomyelitis mice; assay: Experimental allergic encephalomyelitis, Compound (I); assay type: in vivo
Text: The severity of the condition was indicated as a score (disease score) according to the following criteria.
(§1) 0.5: Slight paralysis of tail
2: Light paralysis of hind paw
3: Medium to intense paralysis of hind paw or light forelimb paralysis
(§2) 4: Complete paralysis of hind paw or medium to intense paralysis of forelimb
(§3) 5: Paralysis of four limbs or toward death period
In the prednisolone administered group as a positive control, prednisolone was suspended in 0.5% methylcellulose solution to prepare a liquid of 0.3 mg/ml for administration and 0.1 ml per 10 g mouse weight was orally administered. In a control group, only 0.5% methylcellulose solution was […] administered. The administration was started on the sensitization day and carried out once a day for consecutive 40 days.

[4] = system: adjuvant-induced arthritis rats; assay: Combination effect on adjuvant-induced arthritis (Example 19); assay type: in vivo, rat
Procedure: Combination effect for rat adjuvant-induced arthritis was examined in the same manner as in Example 17.
The volume of the left hind paw was measured by water replacement method just before the administration and after the last administration, and AUC (the area under the curve formed by plotting the difference of the value at the time of grouping from the value of each time point during the administration period against the time) of the increased volume of the left hind paw was determined. Joint destruction of the right hind paw (injected paw) and the left hind paw (non-injection paw) can be measured by X-ray and this can be also used as the index to evaluate the combination effect.

[5] = system: adjuvant-induced arthritis rats; assay: Combination effect on adjuvant-induced arthritis (Example 18); assay type: in vivo, rat; details: only Compound (I) 10 mg/kg oral 12 days from day 10
Procedure: Combination effect with Compound (I) and DMARDs (methotrexate) was examined in the same way as in Example 17.
Administration of a DMARD (methotrexate (0.060 mg/kg or 0.045 mg/kg; 0.5% methylcellulose suspension)) to the rat in which adjuvant-induced arthritis was caused in the same way as in Example 17 was started on the day when the adjuvant was injected and continued once a day for consecutive 21 days. Compound (I) (10 mg/kg) was orally administered singly or in combination once a day for consecutive 12 days from the 10 days after the sensitization. The volume of the left hind paw was measured by water replacement method every other day.

[6] = system: collagen-induced arthritis mouse; assay: Collagen-induced arthritis in mice; assay type: in vivo
Procedure: Efficacy evaluation of Compound (I) was performed using a collagen-induced arthritis in mice as an animal model of rheumatoid arthritis. The collagen-induced arthritis was caused following an ordinary method. That is, 0.1 ml of emulsion was injected to a mouse (DBA/1J, male, Charles River Laboratories Japan) at the base of the tail under etherization as primary immunization. The emulsion was prepared by mixing the same volume of a bovine type II collagen solution (2 mg/ml, Collagen Kenshukai) and Freund Complete Adjuvant (Difco). 0.1 ml of emulsion of the same composition was injected at the base of the tail as booster immunization after three weeks and arthritis was caused. The severity of arthritis was indicated as a score according to the following criteria.
1: Swelling at two or less joints
2: Swelling at three or more joints/Slight redding and edema at limbs
3: Swelling at three or more joints/Moderate redding and edema at limbs
4: Severe redding and edema at limbs/Ankylosis
Evaluation is performed for each limb with 0 to 4 points and therefore the possible maximum score in one individual is 16.
Compound (I) and prednisolone (positive control) were suspended in 0.5% methylcellulose solution and 0.1 ml per 10 g mouse weight was orally administered. In a control group, only 0.5% methylcellulose solution was orally administered. The administration was started with the primary immunization and carried out once a day for consecutive 35 days.

[7] = system: adjuvant arthritis rats; details: reported in Patent Documents 3, 4 and Non-Patent Documents 3 to 5; cited from earlier work
[8] = system: experimental allergic encephalomyelitis mice; assay: Experimental allergic encephalomyelitis, KN-93; assay type: in vivo, mouse
Procedure: The efficacy evaluation of KN-93 was performed with the experimental allergic encephalomyelitis mice as an animal model of multiple sclerosis. The experimental allergic encephalomyelitis was caused following the method of Bradley et al. (J. Clinical Investigation, 107: 995-1006, 2001). That is, 150 μg of PLP partial peptide (PLP139-151: NH2—[…]—COOH, SEQ ID NO 12) mixed in a Freund complete adjuvant was injected subcutaneously to a seven-week old female SJL/J mouse (purchased from Charles River Laboratories Japan) at the rear back. The severity of the condition was indicated as a score (disease score) according to the following criteria.
as §1
2: Light paralysis of hind leg
3: Medium to intense paralysis of hind leg or light forelimb paralysis
as §2, §3
KN-93 was suspended in 0.5% methylcellulose solution (0.1 mg/ml) and 0.1 ml per 10 g mouse weight was subcutaneously administered. In a control group, only 0.5% methylcellulose solution was subcutaneously administered. The administration was started on the 7 days after sensitization and carried out once a day for consecutive 24 days.

[9] = Dose 20 mg/kg oral once a day 40 days
[10] = Dose 40 mg/kg oral once a day 40 days
[11] = 5 mg/kg oral once a day 35 days

In the case of `C[C@@H](c1ccc(-c2ccccc2)c(F)c1)c1cc(/N=C(/N)N2CCOCC2)on1` [Compound (I), 3-[(1S)-1-(2-fluorobiphenyl-4-yl)ethyl]-5-{[amino(morpholin-4-yl)methylene]amino}isoxazole], the “effects on collagen-induced arthritis rats” value [1] is given as “anti-arthritis effects”, the “joint destruction score of the left hind paw, representative individual which showed an average score in the group” value ([2]; Compound (I) 40 mg/kg and/or methotrexate 0.06 mg/kg, control score 3, maximum 12) is given as 1 and the “joint destruction score of the right hind paw, representative individual which showed an average score in the group” value ([2]; Compound (I) 40 mg/kg and/or methotrexate 0.06 mg/kg, control score 10, maximum 12) is given as 5. For the same molecule, the “joint destruction of right and left hind paws” value ([2]; Compound (I) 20, 40, 80 mg/kg in combination with methotrexate 0.06 mg/kg, 17 days) was “dose-dependently and conspicuously enhanced joint destruction suppressing effect of methotrexate”, the “joint destruction of right and left hind paws” value ([2]; only Compound (I) 20, 40, 80 mg/kg oral once a day 17 days) was “dose-dependently showed joint destruction suppressing effect” and the disease score ([3]; 20, 40, 80 mg/kg oral once a day 40 days, FIG. 13) was “suppressed the disease score at any dose”. The “Death Rate” value [3, 9] was 0/10, the “Onset Rate” value [3, 9] was 8/10 and the “Death Rate” value [3, 10] was 0/10. For the same molecule, the “Onset Rate” value [3, 10] was 7/10, the “Onset Rate” value ([3]; Dose 80 mg/kg oral once a day 40 days) was 8/10 and the “Death Rate” value ([3]; Dose 80 mg/kg oral once a day 40 days, 80 mg/kg) was 1 of 10 and 1/10. The “increased volume and onset ratio of left hind paw” value ([4]; only Compound (I) 20 mg/kg oral once a day 17 days) was “edema suppressing effect”, the “increased volume and onset ratio of left hind paw” value ([4]; only Compound (I) 40 mg/kg and 80 mg/kg oral once a day 17 days) was “onset suppressing effect and edema suppressing effect” and the “onset ratio and volume of left hind paw” value [5] was “very little effect”. For the same molecule, the “p, arthritis onset ratio, Fischer's direct probability method with Bonferroni's correction” value [6, 11] was less than 0.05, the “p, arthritis score, Shirley-Williams multiple comparison test” value [6, 11] was less than 0.05 and the onset of arthritis ([6]; 5 to 80 mg/kg oral once a day 35 days, FIG. 10) was “dose-dependently suppressed”. The degree of arthritis ([6]; 5 to 80 mg/kg oral once a day 35 days, FIG. 11) was “slight” and the “effects on adjuvant arthritis rats” value [7] was “anti-arthritis effects”.
With `COc1ccc(S(=O)(=O)N(CCO)c2ccccc2CN(C)C/C=C/c2ccc(Cl)cc2)cc1` [KN-93, N-(2-[N-[4-chlorocinnamyl]-N-methylaminomethyl]phenyl)-N-(2-hydroxyethyl)-4-methoxybenzenesulfonamide, reference compound] the “condition (disease score)” value ([8]; 1 mg/kg subcutaneous once a day 24 days from 7 days after sensitization, FIG. 12) was “much lighter as compared with the control group” and the death ([8]; 1 mg/kg subcutaneous once a day 24 days, control 7 of 10) was 2 of 10.
